# From patent US12213480B2, “Biocidal formulation” (For Spills Ltd., priority 2018, dated 2025)
# Columns and labels:
# Test in all cases: Suspension test of biocide with or without perlite, 1 minute contact
# [1] = test system: Staphylococcus aureus ATCC 6538
# [2] = test system: Pseudomonas aeruginosa ATCC 15442
# [3] = test system: Aspergillus brasiliensis ATCC 16404
SMILES,R reduction in viability [1] [Log 10],"Vc viable count ([1]; dilution −1, duplicate plates)","Vc viable count ([1]; dilution −2, duplicate plates)",R reduction in viability [2] [Log 10],"Vc viable count ([2]; dilution −1, duplicate plates)","Vc viable count ([2]; dilution −2, duplicate plates)","Vc viable count ([2]; dilution −3, duplicate plates)",R reduction in viability [3] [Log 10],"Vc viable count ([3]; dilution N, duplicate plates)","Vc viable count ([3]; dilution −1, duplicate plates)","Vc viable count ([3]; dilution −2, duplicate plates)","Vc viable count ([3]; dilution −3, duplicate plates)"
CC1(C)C(=O)N(Cl)C(=O)N1Br [BDCMH],1.92,>330; >330 cfu,>330; >330 cfu,1.00,>330; >330 cfu,>330; >330 cfu,>330; >330 cfu,−0.01,>165; >165 cfu,>165; >165 cfu,>165; >165 cfu,>165; >165 cfu
"O=c1nc([O-])n(Cl)c(=O)n1Cl.[Na+] [Sodium Dichloroisocyanurate, sodium dichloroisocyanurate]",>6.23,,,3.71,,,,2.84,>165; >165 cfu,,,
